Measurements taken from article PMC11460632, “Chemical modification of hyaluronan oligosaccharides differentially modulates hyaluronan–hyaladherin interactions” (The Journal of Biological Chemistry, 2024).
“Also recorded” adds a separate entry of the source. Where two headings read alike, the source gives them in different places.

Key:
recombinant human TSG-6 = target: T1, recombinant human TSG-6 (Homo sapiens, UniProt P19827+P98066); experiment: In vitro HC-transfer assay (IαI + rhTSG-6, Western blot anti-HC1); format: biochemical; conditions: 15 μM HA, 1.8 μM IαI, rhTSG-6, 2 h at 37 °C; for Substrate for HC transfer: Table 6; for Activity as substrate for HC transfer (text): Western blot anti-HC1
T1 construct: TSG-6–mediated HC-transfer assays (using full-length TSG6); purchased R&D Systems
T1 sequence (P98066 18-277): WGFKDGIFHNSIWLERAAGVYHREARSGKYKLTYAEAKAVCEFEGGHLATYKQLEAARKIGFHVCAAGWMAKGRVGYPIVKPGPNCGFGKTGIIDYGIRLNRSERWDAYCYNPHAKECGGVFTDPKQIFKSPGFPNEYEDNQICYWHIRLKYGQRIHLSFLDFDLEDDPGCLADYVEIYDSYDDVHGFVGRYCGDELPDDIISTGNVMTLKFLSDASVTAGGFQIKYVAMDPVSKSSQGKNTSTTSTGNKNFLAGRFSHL
T1 sequence (P19827 35-672 limits assumed): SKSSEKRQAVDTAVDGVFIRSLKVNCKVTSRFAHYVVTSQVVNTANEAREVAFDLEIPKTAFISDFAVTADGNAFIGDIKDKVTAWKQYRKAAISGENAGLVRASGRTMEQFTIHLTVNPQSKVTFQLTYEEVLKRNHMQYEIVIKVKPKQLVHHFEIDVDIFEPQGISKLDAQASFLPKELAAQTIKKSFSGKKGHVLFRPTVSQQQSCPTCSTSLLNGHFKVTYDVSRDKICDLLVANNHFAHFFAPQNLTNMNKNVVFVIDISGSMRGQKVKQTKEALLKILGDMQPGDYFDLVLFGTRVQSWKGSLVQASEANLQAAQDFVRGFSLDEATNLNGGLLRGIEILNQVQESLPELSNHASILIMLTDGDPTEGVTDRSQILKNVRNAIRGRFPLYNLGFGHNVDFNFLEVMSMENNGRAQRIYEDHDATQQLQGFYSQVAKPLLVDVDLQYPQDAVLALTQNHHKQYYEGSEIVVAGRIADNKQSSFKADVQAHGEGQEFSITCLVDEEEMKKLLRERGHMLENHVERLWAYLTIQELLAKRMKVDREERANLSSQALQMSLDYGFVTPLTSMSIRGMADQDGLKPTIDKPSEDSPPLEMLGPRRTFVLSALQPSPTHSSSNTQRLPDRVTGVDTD
Procedure: Covalent transfer of HC from IαI onto unmodified and chemically modified HA oligosaccharides was analyzed using the assay described previously ([26]). All reactions were performed using a buffer of 20 mM Hepes, pH 7.5, 150 mM NaCl, and 5 mM MgCl2. In a “standard” assay, HA oligosaccharides were at 15 μM, human IαI ([97]) 1.8 at μM (based on a molecular weight of 180 kDa), and recombinant human TSG-6 (R&D Systems) at 2.8 μM (based on a molecular weight of 35 kDa). Reaction mixtures were analyzed by SDS-PAGE using 4 to 12% bis-tris polyacrylamide gels (Invitrogen). For Western blot analysis, proteins were transferred onto nitrocellulose membrane (GE Healthcare) and incubated with antisera against HC1 (CP7, 1:10,000; ([98])). Bound primary antibody was detected using goat-anti-rabbit IgG conjugated to IR dye (LI-COR Biosciences) and blots imaged using an Odyssey Clx near-IR fluorescence imaging system (LICOR Biosciences).

hisCD44_HABD^20–169 = target: T2, hisCD44_HABD^20–169 (Homo sapiens, UniProt P16070); experiment: MST of HA oligosaccharides binding to hisCD44_HABD^20–169; conditions: for Kd: 10 mM Hepes pH 7.5, 150 mM NaCl, 0.05% Tween-20, 25 °C, three titrations, read-out: KD; for % Binding affinity hisCD44_HABD^20–169: Table 6, relative to unmodified oligosaccharide of the same length, by MST
T2 construct: A novel construct consisting of residues 20 to 169 of human CD44 and an N-terminal six-histidine tag; made in house
T2 sequence (P16070 20-169): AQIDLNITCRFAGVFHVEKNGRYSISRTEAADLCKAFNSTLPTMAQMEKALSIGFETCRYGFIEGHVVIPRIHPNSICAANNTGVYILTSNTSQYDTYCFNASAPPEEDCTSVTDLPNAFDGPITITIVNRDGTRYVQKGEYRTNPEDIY
Procedure: For hisCD44_HABD^20–169, interactions with HA oligosaccharides were assessed using MST. Protein (200 nM) was labeled with 5 μM red-Tris-NTA-650 dye following the manufacturer’s instructions in 10 mM Hepes, pH 7.4, 150 mM NaCl, 0.05% (v/v) Tween-20 (interaction buffer). Stock solutions of HA oligosaccharides (5 mM in interaction buffer) were serially diluted (1:1 in interaction buffer) 16 times before each concentration was mixed with an equal volume of labeled protein (10 nM final concentration hisCD44_HABD^20–169). Samples were loaded into standard glass capillaries (NanoTemper) and thermophoresis measured at 25 °C (with active temperature control) using a Monolith NT.115pico instrument (NanoTemper) running NT Control software (version 1.0.1). All experiments were performed in triplicate and data analyzed with the “KD fit model” in the NT Analysis software (version 2.0.2).

Link_TSG6 = target: T3, Link_TSG6 (Homo sapiens, UniProt P98066); experiment: ITC of HA oligosaccharides binding to Link_TSG6; conditions: for N / ΔG / ΔH / −TΔS: 25 °C, 5 mM MES pH 6.0, mean ± SEM; for N: 0.029 mM Link_TSG6, 0.29 mM oligosaccharide, four titrations
T3 construct: made in house
T3 sequence (P98066 36-129 limits assumed): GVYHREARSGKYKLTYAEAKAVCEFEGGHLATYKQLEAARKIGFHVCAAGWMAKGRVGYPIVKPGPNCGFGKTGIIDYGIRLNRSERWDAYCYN
Procedure: ITC experiments were performed using a MicroCal PEAQ-ITC instrument (Malvern Instruments). Oligosaccharide stock solutions were prepared at 0.29 mM (in 5 mM MES, pH 6.0) and injected (18 × 2 μl with 120 s spacing between injections) into the cell containing ∼200 μl Link_TSG6 (0.029 mM) in matched buffer at 25 °C. Data were fit to a one site binding model, after subtracting the heats from the last three injections to account for heat of dilution of the oligosaccharide into buffer. Each oligosaccharide was analyzed in four independently performed ITC experiments.

Row | Structure (SMILES) | Substrate for HC transfer (recombinant human TSG-6) | Activity as substrate for HC transfer (text) (recombinant human TSG-6) | N (Link_TSG6; Table 1, ITC) | ΔG (Link_TSG6; Table 1, ITC) [kcal/mol] | ΔH (Link_TSG6; Table 1, ITC) [kcal/mol] | −TΔS (Link_TSG6; Table 1, ITC) [kcal/mol] | also measured
1 | CC(=O)N[C@H]1[C@H](O[C@H]2[C@H](O)[C@@H](O)[C@H](O[C@@H]([C@H](O)[C@H](O)CO)[C@H](CNc3cccc(C(=O)O)c3)NC(C)=O)O[C@@H]2C(=O)O)O[C@H](CO)[C@@H](O)[C@@H]1O[C@@H]1O[C@H](C(=O)O)[C@@H](O)[C@H](O)[C@H]1O [HA4-3AA] | No | – | – | – | – | – | % of binding to hisCD44_HABD^20–169 compared to the unmodified oligosaccharide of the same length (hisCD44_HABD^20–169; MST): 260%; % HAn^AN: percentage of binding affinity (KB) compared to the unmodified oligosaccharide of the same length (hisCD44_HABD^20–169; Table 2, MST): 260%; Kd (hisCD44_HABD^20–169; Table 2, MST, mean (±SD)): 845 µM; % Binding affinity hisCD44_HABD^20–169 (hisCD44_HABD^20–169): 260%
2 | COc1ccc(C(=O)O)c(NC[C@H](NC(C)=O)[C@@H](O[C@@H]2O[C@H](C(=O)O)[C@@H](O[C@@H]3O[C@H](CO)[C@@H](O)[C@H](O[C@@H]4O[C@H](C(=O)O)[C@@H](O[C@@H]5O[C@H](CO)[C@@H](O)[C@H](O[C@@H]6O[C@H](C(=O)O)[C@@H](O)[C@H](O)[C@H]6O)[C@H]5NC(C)=O)[C@H](O)[C@H]4O)[C@H]3NC(C)=O)[C@H](O)[C@H]2O)[C@H](O)[C@H](O)CO)c1 [HA6-2A4MBA] | Yes | weak substrates; also recorded: could become covalently coupled to an HC | – | – | – | – | % of binding to Link_TSG6 compared to the unmodified oligosaccharide of the same length (Link_TSG6; ITC): 238%; Fold increase in affinity for Link_TSG6 compared to the unmodified oligosaccharide (Link_TSG6; ITC): 2.4 fold; Kd (Link_TSG6; ITC, read-out: KD for Link_TSG6): 0.46 µM; N (Link_TSG6; Table 4, ITC): 1.00 ± 0.02; ΔG (Link_TSG6; Table 4, ITC): -8.64 ± 0.04 kcal/mol; ΔH (Link_TSG6; Table 4, ITC): -10.07 ± 0.28 kcal/mol; −TΔS (Link_TSG6; Table 4, ITC): 1.44 ± 0.25 kcal•mol^a1; % Binding affinity Link_TSG6 (Link_TSG6; Table 6, relative to unmodified oligosaccharide of the same length, by ITC): 238%; % of binding to hisCD44_HABD^20–169 compared to the unmodified oligosaccharide of the same length (hisCD44_HABD^20–169; MST): 52%; % HAx^AN: percentage of binding affinity (KB) compared to the unmodified oligosaccharide of the same length (hisCD44_HABD^20–169; Table 5, MST): 52%; Kd (hisCD44_HABD^20–169; Table 5, MST, mean ± SD): 198 ± 29 µM; % Binding affinity hisCD44_HABD^20–169 (hisCD44_HABD^20–169): 52%
3 | CC(=O)N[C@H]1[C@H](O[C@H]2[C@H](O)[C@@H](O)[C@H](O[C@H]3[C@H](O)[C@@H](CO)O[C@@H](O[C@H]4[C@H](O)[C@@H](O)[C@H](O[C@@H]([C@H](O)[C@H](O)CO)[C@H](CNc5ccccc5C(=O)O)NC(C)=O)O[C@@H]4C(=O)O)[C@@H]3NC(C)=O)O[C@@H]2C(=O)O)O[C@H](CO)[C@@H](O)[C@@H]1O[C@@H]1O[C@H](C(=O)O)[C@@H](O)[C@H](O)[C@H]1O [HA6-2AA] | Yes | good substrates; also recorded: could become covalently coupled to an HC | 1.03 ± 0.02 | -8.50 ± 0.04 | -7.84 ± 0.43 | -0.66 ± 0.41 | –
4 | CC(=O)N[C@H]1[C@H](O[C@H]2[C@H](O)[C@@H](O)[C@H](O[C@H]3[C@H](O)[C@@H](CO)O[C@@H](O[C@H]4[C@H](O)[C@@H](O)[C@H](O[C@@H]([C@H](O)[C@H](O)CO)[C@H](CNc5cccc(C(=O)O)c5)NC(C)=O)O[C@@H]4C(=O)O)[C@@H]3NC(C)=O)O[C@@H]2C(=O)O)O[C@H](CO)[C@@H](O)[C@@H]1O[C@@H]1O[C@H](C(=O)O)[C@@H](O)[C@H](O)[C@H]1O [HA6-3AA] | No | No HC•HA6 complexes were observed | 1.05 ± 0.02 | -8.61 ± 0.10 | -6.30 ± 0.11 | -2.21 ± 0.83 | Activity as substrate for HC transfer (text) (recombinant human TSG-6; listed as HA63AA): could become covalently coupled to an HC
5 | CC(=O)N[C@H]1[C@H](O[C@H]2[C@H](O)[C@@H](O)[C@H](O[C@H]3[C@H](O)[C@@H](CO)O[C@@H](O[C@H]4[C@H](O)[C@@H](O)[C@H](O[C@@H]([C@H](O)[C@H](O)CO)[C@H](CNc5ccc(C(=O)O)cc5)NC(C)=O)O[C@@H]4C(=O)O)[C@@H]3NC(C)=O)O[C@@H]2C(=O)O)O[C@H](CO)[C@@H](O)[C@@H]1O[C@@H]1O[C@H](C(=O)O)[C@@H](O)[C@H](O)[C@H]1O [HA6-4AA] | Yes | weak substrates | 1.02 ± 0.05 | -8.40 ± 0.08 | -7.57 ± 0.26 | -0.83 ± 0.34 | –
6 | CC(=O)N[C@H]1[C@H](O[C@H]2[C@H](O)[C@@H](O)[C@H](O[C@H]3[C@H](O)[C@@H](CO)O[C@@H](O[C@H]4[C@H](O)[C@@H](O)[C@H](O[C@H]5[C@H](O)[C@@H](CO)O[C@@H](O[C@H]6[C@H](O)[C@@H](O)[C@H](O[C@@H]([C@H](O)[C@H](O)CO)[C@H](CNc7ccccc7C(=O)O)NC(C)=O)O[C@@H]6C(=O)O)[C@@H]5NC(C)=O)O[C@@H]4C(=O)O)[C@@H]3NC(C)=O)O[C@@H]2C(=O)O)O[C@H](CO)[C@@H](O)[C@@H]1O[C@@H]1O[C@H](C(=O)O)[C@@H](O)[C@H](O)[C@H]1O [HA8-2AA] | Yes | retained full activity as substrates | 1.06 ± 0.03 | -7.83 ± 0.13 | -12.55 ± 0.59 | 4.69 ± 0.73 | –
7 | CC(=O)N[C@H]1[C@H](O[C@H]2[C@H](O)[C@@H](O)[C@H](O[C@H]3[C@H](O)[C@@H](CO)O[C@@H](O[C@H]4[C@H](O)[C@@H](O)[C@H](O[C@H]5[C@H](O)[C@@H](CO)O[C@@H](O[C@H]6[C@H](O)[C@@H](O)[C@H](O[C@@H]([C@H](O)[C@H](O)CO)[C@H](CNc7cccc(C(=O)O)c7)NC(C)=O)O[C@@H]6C(=O)O)[C@@H]5NC(C)=O)O[C@@H]4C(=O)O)[C@@H]3NC(C)=O)O[C@@H]2C(=O)O)O[C@H](CO)[C@@H](O)[C@@H]1O[C@@H]1O[C@H](C(=O)O)[C@@H](O)[C@H](O)[C@H]1O [HA8-3AA] | Yes | – | 1.05 ± 0.03 | -8.95 ± 0.13 | -8.53 ± 0.33 | -0.60 ± 0.09 | –
8 | CC(=O)N[C@H]1[C@H](O[C@H]2[C@H](O)[C@@H](O)[C@H](O[C@H]3[C@H](O)[C@@H](CO)O[C@@H](O[C@H]4[C@H](O)[C@@H](O)[C@H](O[C@H]5[C@H](O)[C@@H](CO)O[C@@H](O[C@H]6[C@H](O)[C@@H](O)[C@H](O[C@@H]([C@H](O)[C@H](O)CO)[C@H](CNc7ccc(C(=O)O)cc7)NC(C)=O)O[C@@H]6C(=O)O)[C@@H]5NC(C)=O)O[C@@H]4C(=O)O)[C@@H]3NC(C)=O)O[C@@H]2C(=O)O)O[C@H](CO)[C@@H](O)[C@@H]1O[C@@H]1O[C@H](C(=O)O)[C@@H](O)[C@H](O)[C@H]1O [HA8-4AA] | Yes | somewhat weaker substrate than HA8^AN | 0.86 ± 0.02 | -8.37 ± 0.04 | -11.53 ± 0.25 | 3.17 ± 0.26 | –
